Species: Rattus norvegicus
Assay: DrugMatrix - Regimen: Daily Repeat
Type: toxicity, organism-based, Sprague-Dawley
Parameters: regimen Daily Repeat, gender Male, age 6-8 weeks
Settings: in vivo, po, route oral GAVAGE, […]; for ABSOLUTE BASOPHIL / ABSOLUTE EOSINOPHIL / ABSOLUTE LYMPHOCYTE / ABSOLUTE MONOCYTE / ABSOLUTE SEGMENTED NEUTROPHIL / BASOPHIL / EOSINOPHIL / ERYTHROCYTE COUNT / HEMATOCRIT / HEMOGLOBIN / LEUKOCYTE COUNT / LYMPHOCYTE / MEAN CORPUSCULAR HEMOGLOBIN / MEAN CORPUSCULAR HEMOGLOBIN CONCENTRATION / MEAN CORPUSCULAR VOLUME / MONOCYTE / NEUTROPHIL / NUCLEATED RED BLOOD CELLS / PLATELET COUNT: tissue Blood; for ALANINE AMINOTRANSFERASE / ALBUMIN / ALKALINE PHOSPHATASE / ASPARTATE AMINOTRANSFERASE / BLOOD UREA NITROGEN / CARBON DIOXIDE / CHLORIDE / CHOLESTEROL / CREATININE / GLUCOSE / LACTATE DEHYDROGENASE / LIPASE / PHOSPHORUS / POTASSIUM / SODIUM / TOTAL BILIRUBIN / TOTAL PROTEIN / URIC ACID: tissue Plasma
[1] = 250 mg/kg, 120 h, dose level Low, time 5 day
[2] = 500 mg/kg, 72 h, dose level High, time 3 day
[3] = 500 mg/kg, 120 h, dose level High, time 5 day

Question: Which “ABSOLUTE BASOPHIL” value [1] does the source give for CC(C)Cc1ccc(CC(=O)O)cc1 [IBUFENAC] here?
Answer: 0 CELLS/uL

Question: And the “ABSOLUTE EOSINOPHIL” value [1]?
Answer: 236.67 CELLS/uL

Question: What about the “ABSOLUTE LYMPHOCYTE” value [1] of the same molecule?
Answer: 15018.67 CELLS/uL

Question: And the “ABSOLUTE MONOCYTE” value [1]?
Answer: 455.33 CELLS/uL

Question: What about the “ABSOLUTE SEGMENTED NEUTROPHIL” value [1] of the same molecule?
Answer: 1489.33 CELLS/uL

Question: What about the BASOPHIL [1] of the same molecule?
Answer: 0%

Question: And the EOSINOPHIL [1]?
Answer: 1.33%

Question: And the “ERYTHROCYTE COUNT” value [1]?
Answer: 5.48 x10E6/uL

Question: And the HEMATOCRIT [1]?
Answer: 33.63%

Question: And the HEMOGLOBIN [1]?
Answer: 12.33 G/DL

Question: And the “LEUKOCYTE COUNT” value [1]?
Answer: 17.2 x10E3/uL

Question: And the LYMPHOCYTE [1]?
Answer: 87.33%

Question: What about the “MEAN CORPUSCULAR HEMOGLOBIN” value [1] of the same molecule?
Answer: 22.5 pg

Question: And the “MEAN CORPUSCULAR HEMOGLOBIN CONCENTRATION” value [1]?
Answer: 36.67 G/DL

Question: What about the “MEAN CORPUSCULAR VOLUME” value [1] of the same molecule?
Answer: 61.4 fL

Question: What about the MONOCYTE [1] of the same molecule?
Answer: 2.67%

Question: And the NEUTROPHIL [1]?
Answer: 8.67%

Question: What about the “NUCLEATED RED BLOOD CELLS” value [1] of the same molecule?
Answer: 0 /100WBC

Question: And the “PLATELET COUNT” value [1]?
Answer: 1124.33 x10E3/uL

Question: What about the “ALANINE AMINOTRANSFERASE” value [1] of the same molecule?
Answer: 50 u/L

Question: And the ALBUMIN [1]?
Answer: 4.2 G/DL

Question: What about the “ALKALINE PHOSPHATASE” value [1] of the same molecule?
Answer: 391.33 u/L

Question: And the “ASPARTATE AMINOTRANSFERASE” value [1]?
Answer: 81 u/L

Question: What about the “BLOOD UREA NITROGEN” value [1] of the same molecule?
Answer: 16 mg/dL

Question: What about the “CARBON DIOXIDE” value [1] of the same molecule?
Answer: 28.33 mmol/L

Question: And the CHLORIDE [1]?
Answer: 100.33 MEQ/L

Question: What about the CHOLESTEROL [1] of the same molecule?
Answer: 53.33 mg/dL

Question: And the CREATININE [1]?
Answer: 0.16 mg/dL

Question: And the GLUCOSE [1]?
Answer: 167.33 mg/dL

Question: What about the “LACTATE DEHYDROGENASE” value [1] of the same molecule?
Answer: 230 u/L

Question: What about the LIPASE [1] of the same molecule?
Answer: 9 u/L

Question: What about the PHOSPHORUS [1] of the same molecule?
Answer: 12.77 mg/dL

Question: And the POTASSIUM [1]?
Answer: 6.45 MEQ/L

Question: And the SODIUM [1]?
Answer: 142.9 MEQ/L

Question: What about the “TOTAL BILIRUBIN” value [1] of the same molecule?
Answer: 0.13 mg/dL

Question: And the “TOTAL PROTEIN” value [1]?
Answer: 6 G/DL

Question: And the “URIC ACID” value [1]?
Answer: 1.5 mg/dL

Question: And the “ABSOLUTE BASOPHIL” value [2]?
Answer: 0 CELLS/uL

Question: And the “ABSOLUTE EOSINOPHIL” value [2]?
Answer: 218.33 CELLS/uL

Question: And the “ABSOLUTE LYMPHOCYTE” value [2]?
Answer: 13655.67 CELLS/uL

Question: And the “ABSOLUTE MONOCYTE” value [2]?
Answer: 429.67 CELLS/uL

Question: And the “ABSOLUTE SEGMENTED NEUTROPHIL” value [2]?
Answer: 2263 CELLS/uL

Question: What about the BASOPHIL [2] of the same molecule?
Answer: 0%

Question: What about the EOSINOPHIL [2] of the same molecule?
Answer: 1.33%

Question: What about the “ERYTHROCYTE COUNT” value [2] of the same molecule?
Answer: 5.57 x10E6/uL

Question: What about the HEMATOCRIT [2] of the same molecule?
Answer: 35.13%

Question: And the HEMOGLOBIN [2]?
Answer: 12.77 G/DL

Question: What about the “LEUKOCYTE COUNT” value [2] of the same molecule?
Answer: 16.57 x10E3/uL

Question: And the LYMPHOCYTE [2]?
Answer: 82.67%

Question: And the “MEAN CORPUSCULAR HEMOGLOBIN” value [2]?
Answer: 22.97 pg

Question: And the “MEAN CORPUSCULAR HEMOGLOBIN CONCENTRATION” value [2]?
Answer: 36.33 G/DL

Question: What about the “MEAN CORPUSCULAR VOLUME” value [2] of the same molecule?
Answer: 63.13 fL

Question: What about the MONOCYTE [2] of the same molecule?
Answer: 2.67%

Question: And the NEUTROPHIL [2]?
Answer: 13.33%

Question: And the “NUCLEATED RED BLOOD CELLS” value [2]?
Answer: 0 /100WBC

Question: And the “PLATELET COUNT” value [2]?
Answer: 1113.33 x10E3/uL

Question: What about the “ALANINE AMINOTRANSFERASE” value [2] of the same molecule?
Answer: 92.33 u/L

Question: And the ALBUMIN [2]?
Answer: 4.4 G/DL

Question: And the “ALKALINE PHOSPHATASE” value [2]?
Answer: 526.33 u/L

Question: And the “ASPARTATE AMINOTRANSFERASE” value [2]?
Answer: 107.33 u/L

Question: What about the “BLOOD UREA NITROGEN” value [2] of the same molecule?
Answer: 14 mg/dL

Question: What about the “CARBON DIOXIDE” value [2] of the same molecule?
Answer: 27.33 mmol/L

Question: And the CHLORIDE [2]?
Answer: 103.67 MEQ/L

Question: And the CHOLESTEROL [2]?
Answer: 57 mg/dL

Question: What about the CREATININE [2] of the same molecule?
Answer: 0.24 mg/dL

Question: What about the GLUCOSE [2] of the same molecule?
Answer: 142.67 mg/dL

Question: And the “LACTATE DEHYDROGENASE” value [2]?
Answer: 159 u/L

Question: What about the LIPASE [2] of the same molecule?
Answer: 9.67 u/L

Question: And the PHOSPHORUS [2]?
Answer: 12.2 mg/dL

Question: And the POTASSIUM [2]?
Answer: 7.03 MEQ/L

Question: What about the SODIUM [2] of the same molecule?
Answer: 148.07 MEQ/L

Question: And the “TOTAL BILIRUBIN” value [2]?
Answer: 0.2 mg/dL

Question: And the “TOTAL PROTEIN” value [2]?
Answer: 5.93 G/DL

Question: And the “URIC ACID” value [2]?
Answer: 1.43 mg/dL

Question: And the “ABSOLUTE BASOPHIL” value [3]?
Answer: 0 CELLS/uL

Question: What about the “ABSOLUTE EOSINOPHIL” value [3] of the same molecule?
Answer: 195.6 CELLS/uL

Question: And the “ABSOLUTE LYMPHOCYTE” value [3]?
Answer: 15442.4 CELLS/uL

Question: What about the “ABSOLUTE MONOCYTE” value [3] of the same molecule?
Answer: 503.4 CELLS/uL

Question: And the “ABSOLUTE SEGMENTED NEUTROPHIL” value [3]?
Answer: 1838.6 CELLS/uL

Question: And the BASOPHIL [3]?
Answer: 0%

Question: And the EOSINOPHIL [3]?
Answer: 1%

Question: And the “ERYTHROCYTE COUNT” value [3]?
Answer: 5.64 x10E6/uL

Question: What about the HEMATOCRIT [3] of the same molecule?
Answer: 33.38%

Question: And the HEMOGLOBIN [3]?
Answer: 12.04 G/DL

Question: What about the “LEUKOCYTE COUNT” value [3] of the same molecule?
Answer: 17.98 x10E3/uL

Question: And the LYMPHOCYTE [3]?
Answer: 86.6%

Question: What about the “MEAN CORPUSCULAR HEMOGLOBIN” value [3] of the same molecule?
Answer: 21.36 pg

Question: What about the “MEAN CORPUSCULAR HEMOGLOBIN CONCENTRATION” value [3] of the same molecule?
Answer: 36.1 G/DL

Question: And the “MEAN CORPUSCULAR VOLUME” value [3]?
Answer: 59.2 fL

Question: What about the MONOCYTE [3] of the same molecule?
Answer: 2.8%

Question: And the NEUTROPHIL [3]?
Answer: 9.6%

Question: And the “NUCLEATED RED BLOOD CELLS” value [3]?
Answer: 0 /100WBC

Question: And the “PLATELET COUNT” value [3]?
Answer: 1278.6 x10E3/uL

Question: And the “ALANINE AMINOTRANSFERASE” value [3]?
Answer: 66 u/L

Question: And the ALBUMIN [3]?
Answer: 4.06 G/DL

Question: And the “ALKALINE PHOSPHATASE” value [3]?
Answer: 384.8 u/L

Question: And the “ASPARTATE AMINOTRANSFERASE” value [3]?
Answer: 92.4 u/L

Question: And the “BLOOD UREA NITROGEN” value [3]?
Answer: 12.8 mg/dL

Question: What about the “CARBON DIOXIDE” value [3] of the same molecule?
Answer: 25.8 mmol/L

Question: What about the CHLORIDE [3] of the same molecule?
Answer: 102.2 MEQ/L

Question: And the CHOLESTEROL [3]?
Answer: 54.2 mg/dL

Question: What about the CREATININE [3] of the same molecule?
Answer: 0.16 mg/dL

Question: What about the GLUCOSE [3] of the same molecule?
Answer: 152.8 mg/dL

Question: What about the “LACTATE DEHYDROGENASE” value [3] of the same molecule?
Answer: 132.4 u/L

Question: What about the LIPASE [3] of the same molecule?
Answer: 9 u/L

Question: And the PHOSPHORUS [3]?
Answer: 12.02 mg/dL

Question: What about the POTASSIUM [3] of the same molecule?
Answer: 6.28 MEQ/L

Question: What about the SODIUM [3] of the same molecule?
Answer: 142.86 MEQ/L

Question: And the “TOTAL BILIRUBIN” value [3]?
Answer: 0.14 mg/dL

Question: And the “TOTAL PROTEIN” value [3]?
Answer: 5.54 G/DL

Question: What about the “URIC ACID” value [3] of the same molecule?
Answer: 1.78 mg/dL

Source: ChEMBL document CHEMBL3885881, “DrugMatrix”
